Legend:
[1] = biological target: T1, PRMT5 (Homo sapiens, UniProt O14744); experiment: PRMT5 IC50 assay in the presence of SAM as cofactor; type: biochemical
T1 construct: purchased Viva (custom protein)
Outline: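 Values reflect IC50 (μM) on human PRMT5 under three cofactor states. Selectivity is derived as the quotient of SAM-state Ki over MTA-state Ki, with each Ki obtained from its IC50.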

[2] = biological target: T1, PRMT5; experiment: PRMT5 IC50 assay with no cofactor; type: biochemical; details: read-out: No Co-factor IC50
Outline: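 IC50 against PRMT5 determined with SAM as cofactor, with no cofactor, and with MTA as cofactor. Ki derived as IC50/1.5 for the SAM assay and IC50/13.5 for the MTA assay; SAM Ki to MTA Ki ratio also reported.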

[3] = biological target: T1, PRMT5; experiment: PRMT5 IC50 assay in the presence of MTA as cofactor; type: biochemical; details: for IC50: PRMT5, MTA as cofactor; for SAM/MTA Ratio: ratio between Ki in the presence of SAM and Ki in the presence of MTA
Outline: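 Each compound is tested on PRMT5 in the presence of SAM, of MTA, and without any cofactor. Ki values are then back-calculated using fixed factors of 1.5 (SAM) and 13.5 (MTA), and the two Ki values are compared as a ratio.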

[4] = tested on: HAP1 MTAP-intact; experiment: SDMA in-cell western assay, HAP1 MTAP-intact cell line; type: cell-based; details: Homo sapiens
Outline: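 Cells from two matched HAP1 lines, MTAP-null and MTAP-expressing at endogenous levels, are treated with compound. SDMA is then quantified by in-cell western and an IC50 is calculated for each line.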

[5] = tested on: HAP1 MTAP-deleted; experiment: SDMA in-cell western assay, HAP1 MTAP-deleted cell line; type: cell-based; details: for IC50: Homo sapiens, HAP1 MTAP-deleted cell line; for MTAP Intact/Deleted Ratio: IC50 ratio HAP1 MTAP-intact / HAP1 MTAP-deleted
Outline: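 MTAP-null HAP1 cells, the deleted member of an isogenic pair with endogenously MTAP-expressing HAP1, are treated with compound. SDMA is then quantified by in-cell western and an IC50 is calculated.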

T1 sequence (O14744 whole entry): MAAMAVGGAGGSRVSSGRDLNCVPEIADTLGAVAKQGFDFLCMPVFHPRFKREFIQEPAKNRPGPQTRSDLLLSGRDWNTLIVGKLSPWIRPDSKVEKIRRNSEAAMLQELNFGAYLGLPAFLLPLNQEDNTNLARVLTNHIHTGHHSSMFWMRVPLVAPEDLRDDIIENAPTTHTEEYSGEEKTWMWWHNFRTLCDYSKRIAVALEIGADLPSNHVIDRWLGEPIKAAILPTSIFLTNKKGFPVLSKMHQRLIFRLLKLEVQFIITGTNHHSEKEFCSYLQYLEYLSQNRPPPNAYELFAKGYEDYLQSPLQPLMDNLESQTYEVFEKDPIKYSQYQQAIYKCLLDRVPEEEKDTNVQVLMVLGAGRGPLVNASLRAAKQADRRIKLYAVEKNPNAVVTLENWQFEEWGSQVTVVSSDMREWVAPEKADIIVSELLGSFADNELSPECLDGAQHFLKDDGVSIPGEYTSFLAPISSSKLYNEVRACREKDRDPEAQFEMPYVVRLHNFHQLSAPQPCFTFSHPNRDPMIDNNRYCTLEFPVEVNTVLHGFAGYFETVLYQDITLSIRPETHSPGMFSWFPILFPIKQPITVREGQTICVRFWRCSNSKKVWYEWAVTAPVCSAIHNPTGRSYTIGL
T1 sequence (Q9BQA1 whole entry partner): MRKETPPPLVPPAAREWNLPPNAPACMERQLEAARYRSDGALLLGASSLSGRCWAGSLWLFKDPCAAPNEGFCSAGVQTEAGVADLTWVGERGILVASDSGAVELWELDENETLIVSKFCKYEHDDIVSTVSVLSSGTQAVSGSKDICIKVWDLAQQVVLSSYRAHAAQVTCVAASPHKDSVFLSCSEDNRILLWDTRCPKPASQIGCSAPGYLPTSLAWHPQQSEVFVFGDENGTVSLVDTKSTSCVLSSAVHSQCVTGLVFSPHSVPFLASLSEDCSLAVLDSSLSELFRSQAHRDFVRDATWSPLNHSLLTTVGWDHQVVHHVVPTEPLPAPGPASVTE

| IC50 [1] [nM] | IC50 [2] [nM] | IC50 [3] [nM] | IC50 [4] [nM] | IC50 [5] [nM] | SMILES | SAM/MTA Ratio [3] | MTAP Intact/Deleted Ratio [5] |
| --- | --- | --- | --- | --- | --- | --- | --- |
| 50 to 500 | 500 to 5000 | 50 to 500 | ≥ 10000 | 1000 to 10000 | CCCN(C)c1nc(NC2COC2)cc(C(=O)NC[C@H](O)CN2CCc3c(ccc(OCc4cnco4)c3Cl)C2)n1 [Compound 312, (S)—N-(3-(5-chloro-6-(oxazol-5-ylmethoxy)-3N-dihydroisoquinolin-2(1H)-yl)-2-hydroxypropyl)-2-(methyl(propyl)amino)-6-(oxetan-3-ylamino)pyrimidine-4-carboxamide] | A (a Ki ratio greater than or equal to 10 fold between the Ki in the presence of SAM and the Ki in the presence of MTA) | B* (an IC50 ratio greater than or equal to 3 fold but lower than 10 fold between the IC50 in the HAP1 MTAP-intact cell line and the HAP1 MTAP-deleted cell line) |
| 50 to 500 | 500 to 5000 | 50 to 500 | 1000 to 10000 | 1000 to 10000 | CC(C)C(=O)N1CCN(c2nc(NC3COC3)cc(C(=O)NC[C@H](O)CN3CCc4cc(OCc5cnco5)ccc4C3)n2)CC1 [Compound 313] | A (a Ki ratio greater than or equal to 10 fold between the Ki in the presence of SAM and the Ki in the presence of MTA) | C* (an IC50 ratio of less than 3 fold between the IC50 in the HAP1 MTAP-intact cell line and the HAP1 MTAP-deleted cell line) |
| 50 to 500 | 500 to 5000 | 50 to 500 | ≥ 10000 | 1000 to 10000 | COCCN(C)c1nc(NC2COC2)cc(C(=O)NC[C@H](O)CN2CCc3c(ccc(OCc4cnco4)c3Cl)C2)n1 [Compound 314] | A (a Ki ratio greater than or equal to 10 fold between the Ki in the presence of SAM and the Ki in the presence of MTA) | C* (an IC50 ratio of less than 3 fold between the IC50 in the HAP1 MTAP-intact cell line and the HAP1 MTAP-deleted cell line) |
| 50 to 500 | 500 to 5000 | < 50 | 1000 to 10000 | < 1000 | CN(C)CCOc1cc(C(=O)NC[C@H](O)CN2CCc3cc(OCc4cnco4)ccc3C2)cc(NC2CCC2)n1 [Compound 315, (S)-2-(cyclobutylamino)-6-(2-(dimethylamino)ethoxy)-N-(2-hydroxy-3-(6-(oxazol-5-ylmethoxy)-3,4-dihydroisoquinolin-2(1H)-yl)propyl)isonicotinamide] | A (a Ki ratio greater than or equal to 10 fold between the Ki in the presence of SAM and the Ki in the presence of MTA) | C* (an IC50 ratio of less than 3 fold between the IC50 in the HAP1 MTAP-intact cell line and the HAP1 MTAP-deleted cell line) |
| 50 to 500 | ≥ 5000 | 50 to 500 | ≥ 10000 | ≥ 10000 | O=C(NC[C@H](O)CN1CCc2c(ccc(OCc3cnco3)c2Cl)C1)c1ccnc(NC2CCC(F)(F)C2)c1 (stereo partly drawn) [Compound 316, N—((S)-3-(5-chloro-6-(oxazol-5-ylmethoxy)-3,4-dihydroisoquinolin-2(1H)-yl)-2-hydroxypropyl)-2-((3,3-difluorocyclopentyl)amino)isonicotinamide] | A (a Ki ratio greater than or equal to 10 fold between the Ki in the presence of SAM and the Ki in the presence of MTA) | C* (an IC50 ratio of less than 3 fold between the IC50 in the HAP1 MTAP-intact cell line and the HAP1 MTAP-deleted cell line) |
| 500 to 5000 | ≥ 5000 | 50 to 500 | ≥ 10000 | ≥ 10000 | O=C(NC[C@H](O)CN1CCc2c(ccc(OCc3cnco3)c2Cl)C1)c1ccnc(NC2CC(C(F)F)C2)c1 (stereo partly drawn) [Compound 317, (S)—N-(3-(5-chloro-6-(oxazol-5-ylmethoxy)-3,4-dihydroisoquinolin-2(1H)-yl)-2-hydroxypropyl)-2-((3-(difluoromethyl)cyclobutyl)amino)isonicotinamide] | A (a Ki ratio greater than or equal to 10 fold between the Ki in the presence of SAM and the Ki in the presence of MTA) | C* (an IC50 ratio of less than 3 fold between the IC50 in the HAP1 MTAP-intact cell line and the HAP1 MTAP-deleted cell line) |
| 50 to 500 | 500 to 5000 | 50 to 500 | ≥ 10000 | 1000 to 10000 | CCC(=O)N1CCN(c2nc(NC3COC3)cc(C(=O)NC[C@H](O)CN3CCc4c(ccc(OCc5cnco5)c4Cl)C3)n2)CC1 [Compound 318, (S)—N-(3-(5-chloro-6-(oxazol-5-ylmethoxy)-3N-dihydroisoquinolin-2(1H)-yl)-2-hydroxypropyl)-6-(oxetan-3-ylamino)-2-(4-propionylpiperazin-1-yl)pyrimidine-4-carboxamide] | A (a Ki ratio greater than or equal to 10 fold between the Ki in the presence of SAM and the Ki in the presence of MTA) | C* (an IC50 ratio of less than 3 fold between the IC50 in the HAP1 MTAP-intact cell line and the HAP1 MTAP-deleted cell line) |
| 50 to 500 | 500 to 5000 | 50 to 500 | ≥ 10000 | ≥ 10000 | CC(C)(C)N1CCN(c2cc(C(=O)NC[C@H](O)CN3CCc4c(ccc(OCc5cnco5)c4Cl)C3)cc(NC3CCC3)n2)CC1 [Compound 319, (S)-2-(4-(tert-butyl)piperazin-1-yl)-N-(3-(5-chloro-6-(oxazol-5-ylmethoxy)-3N-dihydroisoquinolin-2(1H)-yl)-2-hydroxypropyl)-6-(cyclobutylamino)isonicotinamide] | A (a Ki ratio greater than or equal to 10 fold between the Ki in the presence of SAM and the Ki in the presence of MTA) | C* (an IC50 ratio of less than 3 fold between the IC50 in the HAP1 MTAP-intact cell line and the HAP1 MTAP-deleted cell line) |
| 500 to 5000 | 500 to 5000 | 500 to 5000 | 1000 to 10000 | 1000 to 10000 | O=C(NC[C@H](O)CN1CCc2cc(OCc3cnco3)ccc2C1)c1cc(NC2CCC2)nc(N2CCCCC2)c1 [Compound 320, (S)-2-(cyclobutylamino)-N-(2-hydroxy-3-(6-(oxazol-5-ylmethoxy)-3,4-dihydroisoquinolin-2(1H)-yl)propyl)-6-(piperidin-1-yl)isonicotinamide] |  | C* (an IC50 ratio of less than 3 fold between the IC50 in the HAP1 MTAP-intact cell line and the HAP1 MTAP-deleted cell line) |
| 50 to 500 | 500 to 5000 | 50 to 500 | ≥ 10000 | 1000 to 10000 | CC(=O)N1CCN(c2nc(NC3COC3)cc(C(=O)NC[C@H](O)CN3CCc4cc(OCc5cnco5)ccc4C3)n2)CC1 [Compound 321] | A (a Ki ratio greater than or equal to 10 fold between the Ki in the presence of SAM and the Ki in the presence of MTA) | C* (an IC50 ratio of less than 3 fold between the IC50 in the HAP1 MTAP-intact cell line and the HAP1 MTAP-deleted cell line) |
| 50 to 500 | ≥ 5000 | 50 to 500 | ≥ 10000 | ≥ 10000 | O=C(NC[C@H](O)CN1CCc2c(ccc(OCc3cnco3)c2Cl)C1)c1ccnc(NC2CCC(F)C2)c1 (stereo partly shown) [Compound 322] | A (a Ki ratio greater than or equal to 10 fold between the Ki in the presence of SAM and the Ki in the presence of MTA) | C* (an IC50 ratio of less than 3 fold between the IC50 in the HAP1 MTAP-intact cell line and the HAP1 MTAP-deleted cell line) |
| 50 to 500 | 500 to 5000 | 50 to 500 | ≥ 10000 | 1000 to 10000 | CC(C)C(=O)N1CCN(c2nc(NC3COC3)cc(C(=O)NC[C@H](O)CN3CCc4c(ccc(OCc5cnco5)c4Cl)C3)n2)CC1 [Compound 323, (S)—N-(3-(5-chloro-6-(oxazol-5-ylmethoxy)-3N-dihydroisoquinolin-2(1H)-yl)-2-hydroxypropyl)-2-(4-isobutyrylpiperazin-1-yl)-6-(oxetan-3-ylamino)pyrimidine-4-carboxamide] | A (a Ki ratio greater than or equal to 10 fold between the Ki in the presence of SAM and the Ki in the presence of MTA) | B* (an IC50 ratio greater than or equal to 3 fold but lower than 10 fold between the IC50 in the HAP1 MTAP-intact cell line and the HAP1 MTAP-deleted cell line) |
| 50 to 500 | 500 to 5000 | 50 to 500 | ≥ 10000 | 1000 to 10000 | CCN1CCN(c2nc(NC3COC3)cc(C(=O)NC[C@H](O)CN3CCc4c(ccc(OCc5cnco5)c4Cl)C3)n2)CC1 [Compound 324] | A (a Ki ratio greater than or equal to 10 fold between the Ki in the presence of SAM and the Ki in the presence of MTA) | C* (an IC50 ratio of less than 3 fold between the IC50 in the HAP1 MTAP-intact cell line and the HAP1 MTAP-deleted cell line) |
| 50 to 500 | 500 to 5000 | 50 to 500 | 1000 to 10000 | < 1000 | O=C(NC[C@H](O)CN1CCc2cc(OCc3cnco3)ccc2C1)c1cc(NC2COC2)nc(N2CCCCC2)n1 [Compound 325, (S)—N-(2-hydroxy-3-(6-(oxazol-5-ylmethoxy)-3,4-dihydroisoquinolin-2(1H)-yl)propyl)-6-(oxetan-3-ylamino)-2-(piperidin-1-yl)pyrimidine-4-carboxamide] | A (a Ki ratio greater than or equal to 10 fold between the Ki in the presence of SAM and the Ki in the presence of MTA) | C* (an IC50 ratio of less than 3 fold between the IC50 in the HAP1 MTAP-intact cell line and the HAP1 MTAP-deleted cell line) |
